Laboratory results: doi:10.1101/2025.01.07.631748, “Strategic Modulation of Polarity and Viscosity Sensitivity of Bimane Molecular Rotor-Based Fluorophores for Imaging α-Synuclein” (bioRxiv, 2025)

Experiments:
[1] = molecular target: T1, α-synuclein (αS) fibrils (Homo sapiens, UniProt P37840); assay: fluorescence turn-on binding titration with αS fibrils
T1 construct: gene SNCA

[2] = molecular target: T1, α-synuclein (αS) fibrils; assay: fluorescence competition binding with 3c and 4a; fluorescence turn-on

SMILES	Kd [1]	fluorescence competition binding with 3c and 4a; fluorescence turn-on [2]
Cc1c(C)n2c(/C=C/c3ccc(N4CCC4)cc3)c(C)c(=O)n2c1=O [3d, RBF 3d]	3d and 3e, with cyclic amines, showed reduced affinity	–
Cc1c(C)n2c(/C=C/c3ccc(N4CCOCC4)cc3)c(C)c(=O)n2c1=O [3e, RBF 3e]	3d and 3e, with cyclic amines, showed reduced affinity	–
Cc1ccc2c(c1)sc(-c1ccc(N(C)C)cc1)[n+]2C [ThT, Thioflavin-T]	–	both 3c and 4a competed with the promiscuous binder ThT, but that some ThT emission remained at saturating concentrations
